Structures are written as SMILES.

Sequence of Cyclin-H/Cyclin-dependent kinase 7 (P51946 whole entry): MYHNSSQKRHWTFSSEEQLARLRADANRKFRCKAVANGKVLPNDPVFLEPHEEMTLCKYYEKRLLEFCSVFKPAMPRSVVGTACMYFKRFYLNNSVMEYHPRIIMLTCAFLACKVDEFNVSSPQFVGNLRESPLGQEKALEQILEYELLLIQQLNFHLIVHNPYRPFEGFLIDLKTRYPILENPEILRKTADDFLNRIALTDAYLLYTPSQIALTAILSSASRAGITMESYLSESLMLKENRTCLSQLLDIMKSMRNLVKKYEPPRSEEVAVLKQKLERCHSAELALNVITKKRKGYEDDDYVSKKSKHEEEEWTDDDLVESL
Sequence of Cyclin-H/Cyclin-dependent kinase 7 (P50613 whole entry): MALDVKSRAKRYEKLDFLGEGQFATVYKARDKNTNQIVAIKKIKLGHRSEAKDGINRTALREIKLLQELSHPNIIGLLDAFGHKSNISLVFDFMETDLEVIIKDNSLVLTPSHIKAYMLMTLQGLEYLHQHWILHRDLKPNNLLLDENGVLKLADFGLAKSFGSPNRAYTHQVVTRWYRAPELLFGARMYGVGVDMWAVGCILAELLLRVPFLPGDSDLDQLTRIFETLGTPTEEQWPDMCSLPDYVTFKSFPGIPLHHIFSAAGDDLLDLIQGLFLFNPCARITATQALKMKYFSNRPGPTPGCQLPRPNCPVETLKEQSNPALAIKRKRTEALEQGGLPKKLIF

This assay concerns the target Cyclin-H/Cyclin-dependent kinase 7 (Homo sapiens, UniProt P51946+P50613). Kind of assay: Inhibition of CDK7/Cyclin H (unknown origin).
Molecule `CN(C)C/C=C/C(=O)Nc1ccc(N2CCC[C@@H](Nc3ncc(Cl)c(-c4c[nH]c5ccccc45)n3)C2)nc1` gave an IC50 of 74 nM.
In the case of `CN(C)C/C=C/C(=O)Nc1ccc(C(=O)N2CCC[C@@H](Nc3ncc(Cl)c(-c4c[nH]c5ccccc45)n3)C2)nc1` it was 402 nM.
Then `CN(C)C/C=C/C(=O)Nc1ccc(O[C@@H]2CCC[C@@H](Nc3ncc(Cl)c(-c4c[nH]c5ccccc45)n3)C2)c(F)c1`, with 269 nM.
As to `C=CC(=O)Nc1ccc(C(=O)N2CCC[C@@H](Nc3ncc(Cl)c(-c4c[nH]c5ccccc45)n3)C2)nc1`, inhibition was half-maximal at 919 nM (IC50).

The term IC50 denotes the concentration at which inhibition is half-maximal.

The values above are taken from BindingDB's records for doi:10.1016/j.ejmech.2021.113481 (Harvard Medical School, 2021).
